Source: ChEMBL document CHEMBL3039007, “Structure-based identification of OATP1B1/3 inhibitors” (Mol Pharmacol, 2013)

Tests used:
[1] = biological target: T1, Solute carrier organic anion transporter family member 1B3 (Homo sapiens, UniProt Q9NPD5); conditions: chinese hamster, cho, 10 µM
T1 sequence (Q9NPD5 whole entry): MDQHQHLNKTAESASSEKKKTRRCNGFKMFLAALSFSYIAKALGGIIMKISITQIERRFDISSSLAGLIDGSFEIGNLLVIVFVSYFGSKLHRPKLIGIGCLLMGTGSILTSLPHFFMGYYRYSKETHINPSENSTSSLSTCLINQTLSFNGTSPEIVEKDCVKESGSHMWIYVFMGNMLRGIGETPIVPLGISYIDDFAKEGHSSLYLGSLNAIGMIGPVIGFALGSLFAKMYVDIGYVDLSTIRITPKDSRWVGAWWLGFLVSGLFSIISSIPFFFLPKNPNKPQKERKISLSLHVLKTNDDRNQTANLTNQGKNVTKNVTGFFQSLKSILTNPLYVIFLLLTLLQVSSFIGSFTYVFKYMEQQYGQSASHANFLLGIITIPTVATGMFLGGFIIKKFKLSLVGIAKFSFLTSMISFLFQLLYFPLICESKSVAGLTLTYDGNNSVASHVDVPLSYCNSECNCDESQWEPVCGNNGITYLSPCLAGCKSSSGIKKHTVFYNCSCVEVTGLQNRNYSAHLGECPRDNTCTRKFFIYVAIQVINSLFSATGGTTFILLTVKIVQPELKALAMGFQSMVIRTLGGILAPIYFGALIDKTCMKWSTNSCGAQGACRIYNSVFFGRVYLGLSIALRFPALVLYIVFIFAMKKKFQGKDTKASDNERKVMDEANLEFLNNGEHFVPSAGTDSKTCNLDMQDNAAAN

[2] = biological target: T2, Solute carrier organic anion transporter family member 1B1 (Homo sapiens, UniProt Q9Y6L6); conditions: chinese hamster, cho, 10 µM
T2 sequence (Q9Y6L6 whole entry): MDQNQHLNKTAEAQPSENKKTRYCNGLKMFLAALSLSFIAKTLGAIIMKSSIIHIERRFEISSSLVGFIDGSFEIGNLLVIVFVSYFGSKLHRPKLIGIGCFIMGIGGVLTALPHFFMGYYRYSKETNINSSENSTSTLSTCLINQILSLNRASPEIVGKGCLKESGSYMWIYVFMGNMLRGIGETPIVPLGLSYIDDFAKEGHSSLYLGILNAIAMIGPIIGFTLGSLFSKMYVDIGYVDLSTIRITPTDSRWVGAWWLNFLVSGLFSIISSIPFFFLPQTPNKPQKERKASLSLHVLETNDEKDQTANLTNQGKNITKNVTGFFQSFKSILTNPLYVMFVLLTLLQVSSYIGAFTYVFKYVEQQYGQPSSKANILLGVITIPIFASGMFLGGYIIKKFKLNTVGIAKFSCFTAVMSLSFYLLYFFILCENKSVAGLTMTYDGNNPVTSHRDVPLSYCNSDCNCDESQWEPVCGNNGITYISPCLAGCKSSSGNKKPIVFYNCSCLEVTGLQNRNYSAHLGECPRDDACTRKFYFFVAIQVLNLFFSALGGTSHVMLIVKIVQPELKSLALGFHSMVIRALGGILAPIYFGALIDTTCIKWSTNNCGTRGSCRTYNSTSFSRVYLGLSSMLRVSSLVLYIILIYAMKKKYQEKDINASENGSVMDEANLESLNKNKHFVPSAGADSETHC

Clc1ccc(COC(Cn2ccnc2)c2ccc(Cl)cc2Cl)c(Cl)c1.O=[N+]([O-])O (stereo unspecified) [MICONAZOLE NITRATE]
residual activity [1]: 119.9% | residual activity [2]: 124.1%

CC(C)=CC1C(C(=O)O)C1(C)C (stereo unspecified) [CHRYSANTHEMIC ACID]
residual activity [1]: 97.37% | residual activity [2]: 83.79%

COC(=O)C(C)c1ccc(C(=O)c2cccs2)cc1 (stereo unspecified) [SUPROFEN METHYL ESTER]
residual activity [1]: 95.34% | residual activity [2]: 93.7%

Cl.Cl.NCCSSCCN [CYSTAMINE DIHYDROCHLORIDE]
residual activity [1]: 89.2% | residual activity [2]: 111.3%

CC[C@H]1OC(=O)[C@H](C)[C@@H](O[C@H]2C[C@@](C)(OC)[C@@H](O)[C@H](C)O2)[C@H](C)[C@@H](O[C@@H]2O[C@H](C)C[C@H](N(C)C)[C@H]2O)[C@](C)(O)C[C@@H](C)/C(=N\OCOCCOC)[C@H](C)[C@@H](O)[C@]1(C)O [ROXITHROMYCIN]
residual activity [1]: 77.16% | residual activity [2]: 91.33%

O=c1[nH]cnc2nc[nH]c12 [HYPOXANTHINE]
residual activity [1]: 92.8% | residual activity [2]: 92.05%

C#C[C@]1(O)CC[C@H]2[C@@H]3CCc4cc(O)ccc4[C@H]3CC[C@@]21C [ETHINYL ESTRADIOL]
residual activity [1]: 61.16% | residual activity [2]: 13.12%

O=C(CC(=O)c1ccccc1)c1ccccc1 [DIBENZOYLMETHANE]
residual activity [1]: 118.4% | residual activity [2]: 129.7%

CC(C)c1ccc2c(c1)CCC1[C@](C)(CN)CCC[C@]21C.O=S(=O)(O)O (stereo partly specified) [18-AMINOABIETA-8,11,13-TRIENE SULFATE]
residual activity [1]: 99.03% | residual activity [2]: 102.4%

Cc1cc(=O)oc2cc(O)cc(O)c12 [5,7-DIHYDROXY-4-METHYLCOUMARIN]
residual activity [1]: 106.7% | residual activity [2]: 79.94%

O=C(/C=C/C=C/c1ccc2c(c1)OCO2)N1CCCCC1 [PIPERINE]
residual activity [1]: 97.82% | residual activity [2]: 186.2%

CC(=O)O[C@H]1CC[C@]2(C)C(C[C@H](OC(C)=O)[C@]3(C)C4=CC(=O)OC(c5ccoc5)[C@@]4(C)CCC23)C1(C)C (stereo partly drawn) [3beta,7beta-DIACETOXYDEOXODEACETOXYDEOXYDIHYDROGEDUNIN]
residual activity [1]: 67.84% | residual activity [2]: 51.92%

N#C/C(=C\c1ccc(O)cc1)C(=O)O [alpha-CYANO-4-HYDROXYCINNAMIC ACID]
residual activity [1]: 105.3% | residual activity [2]: 112.8%

C[N+]1(C)[C@@H]2C[C@@H](OC(=O)[C@H](CO)c3ccccc3)C[C@H]1[C@@H]1O[C@@H]12.[Br-] [METHSCOPOLAMINE BROMIDE]
residual activity [1]: 92.61% | residual activity [2]: 104.8%

CN1[C@@H]2CC[C@H]1C[C@@H](OC(c1ccccc1)c1ccccc1N)C2 (stereo partly specified) [AMINOBENZTROPINE]
residual activity [1]: 77.23% | residual activity [2]: 75.33%

CC(=O)[C@H]1CC[C@H]2[C@@H]3C[C@H](C)C4=CC(=O)CC[C@]4(C)[C@H]3[C@@H](O)C[C@]12C [MEDRYSONE]
residual activity [1]: 90.89% | residual activity [2]: 86.36%

CC(C)=CCc1c(O)cc2occ(-c3ccc4c(c3)OCO4)c(=O)c2c1O [DERRUBONE]
residual activity [1]: 106.9% | residual activity [2]: 115.1%

CC(=O)O[C@H]1CC[C@]2(C)[C@H]3CC=C4[C@@H]5CC(C)(C)CC[C@]5(C(=O)O)CC[C@@]4(C)[C@]3(C)CC[C@H]2C1(C)C [ACETYL OLEANOLIC ACID]
residual activity [1]: 24.66% | residual activity [2]: 37.04%

CC1=NCCc2c1[nH]c1cc(O)ccc21.Cl [HARMALOL HYDROCHLORIDE]
residual activity [1]: 106.1% | residual activity [2]: 84.87%

C/C=C/c1ccc2c(c1)OCO2 [ISOSAFROLE]
residual activity [1]: 79.83% | residual activity [2]: 75.01%

Cl.O=C(O)C1=CCNCC1 [ISOGUVACINE HYDROCHLORIDE]
residual activity [1]: 103.5% | residual activity [2]: 113.5%

Cl.NNCc1ccccc1 [BENZYLHYDRAZINE HYDROCHLORIDE]
residual activity [1]: 108.9% | residual activity [2]: 122.4%

O=C(/C=C/c1ccc(O)c(O)c1)OCCc1ccccc1 [CAFFEIC ACID PHENETHYL ESTER]
residual activity [1]: 143.5% | residual activity [2]: 254%

Nc1ccn([C@@H]2O[C@H](CO)[C@@H](O)[C@H]2O)c(=O)n1 [CYTIDINE]
residual activity [1]: 114% | residual activity [2]: 99.44%

CC(C)=CCC1=C(O)C(=O)c2ccccc2C1=O [LAPACHOL]
residual activity [1]: 108.2% | residual activity [2]: 115.5%

NC(=O)N/N=C/c1ccc([N+](=O)[O-])o1 [NITROFURAZONE]
residual activity [1]: 98.78% | residual activity [2]: 93.46%

C[C@]12CCC(=O)C=C1CC[C@@H]1[C@@H]2[C@@H](O)C[C@@]2(C)[C@H]1CC[C@]2(O)C(=O)COC(=O)CCC(=O)O [HYDROCORTISONE HEMISUCCINATE ANHYDROUS]
residual activity [1]: 101.8% | residual activity [2]: 93.98%

O=C(O)[C@]1(O)C[C@@H](O)[C@@H](O)[C@H](O)C1 [QUINIC ACID]
residual activity [1]: 98.01% | residual activity [2]: 95.08%

C1CCC(C(CC2CCCCN2)C2CCCCC2)CC1.O=C(O)/C=C\C(=O)O (stereo unspecified) [PERHEXILINE MALEATE]
residual activity [1]: 92.29% | residual activity [2]: 68.81%

CC1(C)CC[C@]2(C(=O)O)CC[C@]3(C)C(=CC[C@@H]4[C@@]5(C)CC[C@H](O)C(C)(C)[C@@H]5CC[C@]43C)[C@@H]2C1 [OLEANOLIC_ACID]
residual activity [1]: 73.61% | residual activity [2]: 83.88%

O=C(O)CCCCC1CCSS1 (stereo not drawn) [LIPOIC ACID, ALPHA]
residual activity [1]: 103.3% | residual activity [2]: 129.1%

NC(=O)N1c2ccccc2CC(=O)c2ccccc21 [OXCARBAZEPINE]
residual activity [1]: 85.1% | residual activity [2]: 71.5%

NCCC(=O)N[C@@H](Cc1cnc[nH]1)C(=O)O [CARNOSINE]
residual activity [1]: 98.86% | residual activity [2]: 26.44%

C=C[C@H]1CN2CC[C@H]1C[C@H]2[C@H](O)c1ccnc2ccc(OC)cc12.C=C[C@H]1CN2CC[C@H]1C[C@H]2[C@H](O)c1ccnc2ccc(OC)cc12.O.O.O=S(=O)(O)O [QUININE SULFATE]
residual activity [1]: 99.87% | residual activity [2]: 92.08%

COc1c(C(C)C)oc2cc3oc(=O)ccc3cc12 [PEUCEDANIN]
residual activity [1]: 105.2% | residual activity [2]: 101.3%

COC(=O)[C@H]1OC(=O)[C@H]2O[C@]23[C@]2(C)[C@H](CC[C@]13C)[C@]1(C)CCC(=O)C(C)(C)[C@@H]1C[C@H]2OC(C)=O
residual activity [1]: 97.12% | residual activity [2]: 32.74%

C1CNCCN1 [PIPERAZINE]
residual activity [1]: 102.1% | residual activity [2]: 77.78%

CCCCC(=O)O[C@]1(C(=O)CO)[C@@H](C)C[C@H]2[C@@H]3CCC4=CC(=O)C=C[C@]4(C)[C@@]3(F)[C@@H](O)C[C@@]21C [BETAMETHASONE VALERATE]
residual activity [1]: 10.24% | residual activity [2]: 38.6%
